Source: patent US8445517B2, “Stat modulators” (Dana-Farber Cancer Institute, priority 2009, dated 2013)
Entries after “also recorded” stand apart in the source; their conditions may differ. Counter-ions that a name gives are not always drawn.

How the values were obtained:
[1] = tested on: Stat1; assay: Stat1 luciferase reporter cell screen (NIH3T3 cells, IFN-γ stimulated); type: cell-based; settings: screen for enhancers of Stat1 function
Protocol: A cell-based assay system for each Stat1, Stat3 and Stat5 was developed to identify compounds that modulate the respective Stat activity. Although the details for each system are slightly different, as described below, the basic principle are the same. […]
Cells were selected in geneticin (G418) to isolate clones that had stably integrated the plasmid. Individual clones were isolated and luciferase expression was measured by luminometry in the presence and absence of a stimulator of the specific Stat of interest. […]
All three cell-based screening systems were adapted for use in 384-well plates, which were then used to screen a library of 1120 compounds (the Prestwick Myeloma Collection available from Prestwick Chemical, Illkirch, France). […] After 6 hours, 40 μl of 0.5× Bright-Glo luciferase substrate (diluted in PBS) is added, and luciferase activity is quantitated on a Luminoskan luminometer (Helsinki, Finland). […]

[2] = tested on: endogenous Stat1 genes; assay: Expression of endogenous Stat1 target genes (quantitative real-time PCR); type: cell-based
Protocol: This is followed by another confirmation assay utilizing quantitative real-time PCR measuring expression of endogenous target genes of each Stat. In this assay the cells are incubated as described above. However, after the incubation the cells are lysed and assessed for increased or decreased expression of target genes specific for the respective Stat molecule, e.g., Stat1, interferon-responsive factor (IRF)-1, GADD45[…], and IFI-16; for Stat3, SOCS3, BCL-6, and KLF-4; and, for Stat5, CIS, PIM-1, and MMP3.

[3] = tested on: Stat1; assay: Mechanistic studies of Stat1 tyrosine phosphorylation; type: cell-based
[4] = tested on: MCF-7 breast cancer cells; assay: Growth inhibition by IFN-γ in breast cancer cells; type: cell-based, human; settings: Stat1-dependent; MCF-7 cells (FIG. 8)
[5] = tested on: Stat3; assay: Stat3 luciferase reporter cell assay (U3A cells, IL-6 stimulated); type: cell-based; settings: for inhibition of Stat3 activity in validation studies: compounds tested individually, dose responses analyzed, selective versus NF-κB; for enhancement of Stat3 function: Stat3-dependent luciferase screen; for Stat3-dependent luciferase activity, primary screen: library screen in 384-well plates, IL-6 stimulated; for induction of luciferase in the Stat3 reporter system: cytokine treatment, test of reporter specificity
Text: A cell-based assay system for each Stat1, Stat3 and Stat5 was developed to identify compounds that modulate the respective Stat activity. Although the details for each system are slightly different, as described below, the basic principle are the same. Appropriate cell lines (NIH3T3 for Stat1, U3A for Stat3, and T47D for Stat5) were transfected with a plasmid containing a luciferase reporter gene under the control of a promoter responsive to the indicated Stat, e.g., Stat1, Stat3 or Stat5, as well as a neomycin phosphotransferase cassette (BRIGHT GLO Luciferase Assay Kit available from Promega (Madison, Wis.). The reporter plasmid used in the Stat1 and Stat3 cell lines is described in Lynch et al., Cancer Research, 67:1254-61 (2007), which is herein incorporated by reference in its entirety. The nuclic acid binding sequence of Stat5 use in the reporter plasmid is denoted as region B in Walker et al., Oncogene, 26:224-233 (2007), which is herein incorporated by reference in its entirety.
Cells were selected in geneticin (G418) to isolate clones that had stably integrated the plasmid. Individual clones were isolated and luciferase expression was measured by luminometry in the presence and absence of a stimulator of the specific Stat of interest. Clones having a low basal luciferase expression, prominent induction by a specific stimulus (IFN-γ for Stat1, (IL)-6 for Stat3 and prolactin for Stat5), no induction with an irrelevant stimulus, and stable properties after prolonged cell culture or cryopreservation and thawing were selected. […] Several of these cell lines for each Stat construct were deposited with American Type Culture Collection of Manassas, Va. For example, cell lines having the Stat1 inducible promoter were deposited under ATCC Nos. Cell lines having the Stat3 inducible promoter were deposited under ATCC Nos. Cell lines having the Stat5 inducible promoter were deposited under ATCC numbers Nos.
To ensure the specificity of the reporter systems, the Stat3 reporter cell line and the NF-κB reporter system were compared. Each cell type was either untreated, treated with IL-6 (which activates Stat3 in both systems) or treated with TNF-α (which activates NF-κB in both).
All three cell-based screening systems were adapted for use in 384-well plates, which were then used to screen a library of 1120 compounds (the Prestwick Myeloma Collection available from Prestwick Chemical, Illkirch, France). […] Briefly, 2,500 cells are plated per well in 30 μl of medium in a 384 well plate and grown in Dulbecco's modified Eagle's medium (DMEM) supplemented with 10% fetal calf serum in an incubator with a 95% air/5% CO2 atmosphere at 37° C. After a 16 hour incubation to allow cells to adhere, 100 nl of the test compound is added per well and incubated for one hour, after which the activating cytokine (IFN-γ, IL-6, and prolactin, respectively) are added to each well in 10 μl of medium. After 6 hours, 40 μl of 0.5× Bright-Glo luciferase substrate (diluted in PBS) is added, and luciferase activity is quantitated on a Luminoskan luminometer (Helsinki, Finland).

[6] = tested on: NF-κB; assay: NF-κB luciferase reporter cell assay (293T cells, TNF-α stimulated); type: cell-based; settings: for NF-κB activity, primary screen: NF-κB luciferase reporter, control for non-specific effects; for induction of luciferase in the NF-κB reporter cells: cytokine treatment, test of reporter specificity
Protocol: A parallel system was also developed in which luciferase was under the control of the transcription factor NF-κB (cell lines deposited on under ATCC Nos.). When these 293T cells are treated with tumor necrosis factor (TNF)-α, they show prominent induction of luciferase. This provided an independent control to exclude non-specific effects.
To ensure the specificity of the reporter systems, the Stat3 reporter cell line and the NF-κB reporter system were compared. Each cell type was either untreated, treated with IL-6 (which activates Stat3 in both systems) or treated with TNF-α (which activates NF-κB in both). IL-6 led to approximately a five-fold induction of luciferase in the Stat3 reporter system, but induced no change in the NF-κB reporter cells. Conversely, TNF-α induced a 12-fold induction of luciferase in the NF-κB reporter cells, but led to no change in the Stat3-reporter system. The Stat1 and Stat5 reporter systems show similar characteristics. All three cell-based screens are able to reproducibly identify active and specific compounds.
The compounds that show selective activity in the primary screen (e.g., 25% or more difference in luciferase activity in the presence versus the absence of the compound and less than 12% difference in luciferase activity in the Nf-κB assay in the presence versus the absence of the compound) were then validated in a dose-response assay using the appropriate reporter cell lines.

Oc1ccccc1-c1ccc2cccnc2n1 [2-(1,8-Naphthyridin-2-yl)phenol]
Stat1 modulator class as named in figure legend [1]: Stat1 activator
expression of endogenous Stat1 genes [2]: enhanced
magnitude and duration of Stat1 tyrosine phosphorylation [3]: increasing
growth inhibitory effects of IFN-γ on human breast cancer cell lines [4]: accentuated; also recorded: enhances

O=S1(=O)CCC(OC2CCS(=O)(=O)C2)C1 (stereo not drawn) [3,3′-oxybis[tetrahydrothiophene, 1,1,1′,1′-tetraoxide]
Stat3 modulator class as named in figure legend [5]: Stat3 inhibitor

CCCN(CCC)C(=O)CC(c1ccccc1)c1ccccc1O (stereo not drawn) [3-(2-hydroxyphenyl)-3-phenyl-N,N-dipropylpropanamide]
inhibition of Stat3 activity in validation studies [5]: significantly and specifically inhibit Stat3 activity

Nc1ncnc2c1ncn2[C@@H]1O[C@H](COP(=O)(O)O)[C@@H](O)[C@H]1O.O [adenosine 5′-monophosphate monohydrate]
enhancement of Stat3 function [5]: specifically enhance Stat3 function

C=CCc1ccccc1OCC(O)CNC(C)C (stereo not drawn) [alprenolol hydrochloride]
inhibition of Stat3 activity in validation studies [5]: significantly and specifically inhibit Stat3 activity

C[C@@H]1C[C@@H]([C@H](O)CC2CC(=O)NC(=O)C2)C(=O)[C@@H](C)C1 [cycloheximide]
Stat3-dependent luciferase activity, primary screen [5]: inhibited both
NF-κB activity, primary screen [6]: inhibited both

COc1cccc2c1C(=O)c1c(O)c3c(c(O)c1C2=O)C[C@@](O)(C(C)=O)C[C@@H]3O[C@H]1C[C@H](N)[C@H](O)[C@H](C)O1 [daunorubicin]
Stat3-dependent luciferase activity, primary screen [5]: inhibited both
NF-κB activity, primary screen [6]: inhibited both

COc1cccc2c1C(=O)c1c(O)c3c(c(O)c1C2=O)C[C@@](O)(C(=O)CO)C[C@@H]3O[C@H]1C[C@H](N)[C@H](O)[C@H](C)O1 [doxorubicin]
Stat3-dependent luciferase activity, primary screen [5]: inhibited both
NF-κB activity, primary screen [6]: inhibited both

CNCCC(Oc1ccc(C(F)(F)F)cc1)c1ccccc1 (stereo not drawn) [fluoxetine hydrochloride]
inhibition of Stat3 activity in validation studies [5]: significantly and specifically inhibit Stat3 activity

N=C(N)N/N=C/c1c(Cl)cccc1Cl [guanabenz acetate]
inhibition of Stat3 activity in validation studies [5]: significantly and specifically inhibit Stat3 activity

O=P1(NCCCl)OCCCN1CCCl (stereo not drawn) [ifosfamide]
inhibition of Stat3 activity in validation studies [5]: significantly and specifically inhibit Stat3 activity

COC(=O)Nc1nc2ccc(C(=O)c3ccccc3)cc2[nH]1 [mebendazole]
enhancement of Stat3 function [5]: specifically enhance Stat3 function

O=C1c2c(O)ccc(O)c2C(=O)c2c(NCCNCCO)ccc(NCCNCCO)c21 [mitoxantrone]
Stat3-dependent luciferase activity, primary screen [5]: inhibited both
NF-κB activity, primary screen [6]: inhibited both

CCOC(=O)Nc1ccc2c(c1)N(C(=O)CCN1CCOCC1)c1ccccc1S2 [moricizine hydrochloride]
inhibition of Stat3 activity in validation studies [5]: significantly and specifically inhibit Stat3 activity

O=C(N/N=C/c1ccc([N+](=O)[O-])o1)c1ccc(O)cc1 [nifuroxazide]
inhibition of Stat3 activity in validation studies [5]: significantly and specifically inhibit Stat3 activity

COC(=O)Nc1nc2ccc(C(=O)c3cccs3)cc2[nH]1 [nocodazole]
enhancement of Stat3 function [5]: specifically enhance Stat3 function

CNCCC=C1c2ccccc2CCc2ccccc21 [nortriptyline hydrochloride]
enhancement of Stat3 function [5]: specifically enhance Stat3 function

COc1cc([C@@H]2c3cc4c(cc3[C@H](O)[C@H]3COC(=O)[C@H]23)OCO4)cc(OC)c1OC [podophyllotoxin]
enhancement of Stat3 function [5]: specifically enhance Stat3 function

CN(C)CCCN1c2ccccc2Sc2ccccc21 [promazine hydrochloride]
enhancement of Stat3 function [5]: specifically enhance Stat3 function

CC[N+](C)(CC)CCC[n+]1c(-c2ccccc2)c2cc(N)ccc2c2ccc(N)cc21.[I-].[I-] [propidium iodide]
Stat3-dependent luciferase activity, primary screen [5]: inhibited both
NF-κB activity, primary screen [6]: inhibited both

NC(=O)c1ncn([C@@H]2O[C@H](CO)[C@@H](O)[C@H]2O)n1 [ribavirin]
enhancement of Stat3 function [5]: specifically enhance Stat3 function

CN(C)C/C=C(/c1ccc(Br)cc1)c1cccnc1 [zimelidine dihydrochloride monohydrate]
enhancement of Stat3 function [5]: specifically enhance Stat3 function

IL-6: cytokine which activates Stat3; specific stimulus of the Stat3 reporter
induction of luciferase in the Stat3 reporter system [5]: five-fold
induction of luciferase in the NF-κB reporter cells [6]: no change

TNF-α
induction of luciferase in the Stat3 reporter system [5]: no change
induction of luciferase in the NF-κB reporter cells [6]: 12 fold

deptropine citrate
enhancement of Stat3 function [5]: specifically enhance Stat3 function

solanine alpha
inhibition of Stat3 activity in validation studies [5]: significantly and specifically inhibit Stat3 activity
